Source: patent publication US10308650B2, “Pesticidally active tetracyclic derivatives with sulfur containing substituents” (Syngenta Participations AG, priority 2014, dated 2019)
Like-named read-outs stand apart in the source and are kept apart here.

Legend:
Format in all cases: in vivo
[1] = system: Diabrotica balteata (Corn Root Worm); assay: Activity against Diabrotica balteata; details: 96 h, read-out: effect in at least one of the two categories (mortality or growth inhibition); for percent effect (mortality or growth inhibition) at 200 ppm: application rate of 200 ppm, maize sprouts, L2 larvae, 4 days after infestation
Protocol: Example B2: Activity Against Diabrotica balteata (Corn Root Worm)
Maize sprouts placed onto an agar layer in 24-well microtiter plates were treated with aqueous test solutions prepared from 10,000 ppm DMSO stock solutions by spraying. After drying, the plates were infested with L2 larvae (6 to 10 per well). The samples were assessed for mortality and growth inhibition in comparison to untreated samples 4 days after infestation.

[2] = system: Myzus persicae (Green Peach Aphid); assay: Activity against Myzus persicae: intrinsic activity; details: 120 h
Excerpt: Example B7: Activity Against Myzus persicae (Green Peach Aphid). Intrinsic Activity
Test compounds prepared from 10,000 ppm DMSO stock solutions were applied by pipette into 24-well microtiter plates and mixed with sucrose solution. The plates were closed with a stretched Parafilm. A plastic stencil with 24 holes was placed onto the plate and infested pea seedlings were placed directly on the Parafilm. The infested plate was closed with a gel blotting paper and another plastic stencil and then turned upside down. The samples were assessed for mortality 5 days after infestation.

[3] = system: Spodoptera littoralis (Egyptian Cotton Leaf Worm); assay: Activity against Spodoptera littoralis (cotton leaf discs, spray); details: foliar, 72 h, read-out: control (mortality, anti-feeding effect, growth inhibition)
Protocol: Example B9: Activity Against Spodoptera littoralis (Egyptian Cotton Leaf Worm)
Cotton leaf discs were placed onto agar in 24-well microtiter plates and sprayed with aqueous test solutions prepared from 10,000 ppm DMSO stock solutions. After drying the leaf discs were infested with five L1 larvae. The samples were assessed for mortality, anti-feeding effect, and growth inhibition in comparison to untreated samples 3 days after infestation. Control of Spodoptera littoralis by a test sample is given when at least one of the categories mortality, anti-feedant effect, and growth inhibition is higher than the untreated sample.

[4] = system: Euschistus heros (Neotropical Brown Stink Bug); assay: Activity against Euschistus heros; details: 120 h, read-out: effect in at least one of the two categories (mortality or growth inhibition); for percent effect (mortality or growth inhibition) at 200 ppm: application rate of 200 ppm, soybean leaves, N2 nymphs, 5 days after infestation; for percent control (mortality or growth inhibition) at 200 ppm: in Glycine max
Protocol: Example B3: Activity Against Euschistus heros (Neotropical Brown Stink Bug)
Soybean leaves on agar in 24-well microtiter plates were sprayed with aqueous test solutions prepared from 10,000 ppm DMSO stock solutions. After drying the leaves were infested with N2 nymphs. The samples were assessed for mortality and growth inhibition in comparison to untreated samples 5 days after infestation.

[5] = system: Myzus persicae (Green Peach Aphid); assay: Activity against Myzus persicae: feeding/contact activity; details: foliar, 144 h
Protocol: Example B5: Activity Against Myzus persicae (Green Peach Aphid): Feeding/Contact Activity
Sunflower leaf discs were placed onto agar in a 24-well microtiter plate and sprayed with aqueous test solutions prepared from 10,000 ppm DMSO stock solutions. After drying, the leaf discs were infested with an aphid population of mixed ages. The samples were assessed for mortality 6 days after infestation.

[6] = system: Plutella xylostella (Diamond Back Moth); assay: Activity against Plutella xylostella; details: 120 h, read-out: effect in at least one of the two categories (mortality or growth inhibition); for percent effect (mortality or growth inhibition) at 200 ppm: application rate of 200 ppm, artificial diet, L2 larvae, 5 days after infestation
Protocol: Example B8: Activity Against Plutella xylostella (Diamond Back Moth)
24-well microtiter plates with artificial diet were treated with aqueous test solutions prepared from 10,000 ppm DMSO stock solutions by pipetting. After drying, the plates were infested with L2 larvae (10 to 15 per well). The samples were assessed for mortality and growth inhibition in comparison to untreated samples 5 days after infestation.

[7] = system: Bemisia tabaci (Cotton White Fly); assay: Activity against Bemisia tabaci: feeding/contact activity; details: foliar, 144 h, application rate of 200 ppm, cotton leaf discs, adult white flies, 6 days after incubation
Protocol: Example B1: Activity Against Bemisia tabaci (Cotton White Fly): Feeding/Contact Activity
Cotton leaf discs were placed on agar in 24-well microtiter plates and sprayed with aqueous test solutions prepared from 10,000 ppm DMSO stock solutions. After drying the leaf discs were infested with adult white flies. The samples were checked for mortality 6 days after incubation.

[8] = system: Myzus persicae (Green Peach Aphid); assay: Activity against Myzus persicae: systemic activity; details: 144 h
Protocol: Example B6: Activity Against Myzus persicae (Green Peach Aphid). Systemic Activity
Roots of pea seedlings infested with an aphid population of mixed ages were placed directly into aqueous test solutions prepared from 10,000 DMSO stock solutions. The samples were assessed for mortality 6 days after placing seedlings into test solutions.

[9] = system: Aedes aegypti (Yellow Fever Mosquito); assay: Activity against Aedes aegypti; details: 200 ppm in ethanol, dry deposit in 12 well plates, adult females, after 48 h and/or 24 h
Protocol: Example B13: Activity Against Aedes aegypti (Yellow Fever Mosquito)
Test solutions, at an application rate of 200 ppm in ethanol, were applied to 12 well tissue culture plates. Once the deposits were dry, five, two to five day old adult female Aedes aegypti were added to each well, and sustained with a 10% sucrose solution in a cotton wool plug. Assessment of knockdown was made one hour after introduction, and mortality was assessed at 24 and 48 hours after introduction.

[10] = system: Spodoptera littoralis (Egyptian Cotton Leaf Worm); assay: Activity against Spodoptera littoralis (lettuce, uptake by the roots from agar); details: 144 h, read-out: effect in at least one of the three categories (mortality, anti-feeding, or growth inhibition)
Excerpt: Example B10: Activity Against Spodoptera littoralis (Egyptian Cotton Leaf Worm)
Test compounds were applied by pipette from 10,000 ppm DMSO stock solutions into 24-well plates and mixed with agar. Lettuce seeds were placed onto the agar and the multi well plate was closed by another plate which contained also agar. After 7 days the compound was absorbed by the roots and the lettuce grew into the lid plate. The lettuce leaves were then cut off into the lid plate. Spodoptera eggs were pipetted through a plastic stencil onto a humid gel blotting paper and the lid plate was closed with it. The samples were assessed for mortality, anti-feedant effect and growth inhibition in comparison to untreated samples 6 days after infestation.

[11] = system: Frankliniella occidentalis (Western Flower Thrips); assay: Activity against Frankliniella occidentalis: feeding/contact activity; details: foliar, 168 h, application rate of 200 ppm, sunflower leaf discs, population of mixed ages, 7 days after infestation
Protocol: Example B4: Activity Against Frankliniella occidentalis (Western Flower Thrips): Feeding/Contact Activity
Sunflower leaf discs were placed on agar in 24-well microtiter plates and sprayed with aqueous test solutions prepared from 10,000 DMSO stock solutions. After drying the leaf discs were infested with a Frankliniella population of mixed ages. The samples were assessed for mortality 7 days after infestation.

[12] = test rate of 12 ppm, sucrose solution under Parafilm, 5 days after infestation, read-out: mortality
[13] = application rate of 200 ppm, cotton leaf discs, L1 larvae, 3 days after infestation
[14] = application rate of 200 ppm, sunflower leaf discs, aphid population of mixed ages, 6 days after infestation, read-out: mortality
[15] = test rate of 24 ppm, roots of infested pea seedlings in test solution, 6 days, read-out: mortality

CCS(=O)(=O)c1cc2ccccc2cc1-c1nc2cc(C(F)(F)F)cnc2n1C [Compound A3, 2-(3-ethylsulfonyl-2-naphthyl)-3-methyl-6-(trifluoromethyl)imidazo[4,5-b]pyridine]
≥ 80%: percent effect (mortality or growth inhibition) at 200 ppm [1] | mortality at 12 ppm [2, 12] | mortality at 200 ppm [3, 13] | percent effect (mortality or growth inhibition) at 200 ppm [4] | mortality at 200 ppm [5, 14] | percent effect (mortality or growth inhibition) at 200 ppm [6]

CCS(=O)(=O)c1cc2nc(C(F)(F)F)n(C)c2cc1-c1nc2cc(C(F)(F)F)ncc2n1C [Compound A8, 2-[6-ethylsulfonyl-3-methyl-2-(trifluoromethyl)benzimidazol-5-yl]-3-methyl-6-(trifluoromethyl)imidazo[4,5-c]pyridine]
≥ 80%: mortality at 200 ppm [7] | percent effect (mortality or growth inhibition) at 200 ppm [1] | mortality at 24 ppm [8, 15] | pest or weed control at 200 ppm [9] | percent effect (mortality or growth inhibition) at 200 ppm [4] | mortality at 200 ppm [5, 14] | percent effect (mortality or growth inhibition) at 200 ppm [6]

CCSc1cc2ccccc2nc1-c1nc2cc(C(F)(F)F)ncc2n1C [Compound A21, 3-ethylsulfanyl-2-[3-methyl-6-(trifluoromethyl)imidazo[4,5-c]pyridin-2-yl]quinolone]
≥ 80%: percent control (mortality or growth inhibition) at 200 ppm [1] | mortality at 12 ppm [2] | mortality at 200 ppm [3] | percent control (mortality or growth inhibition) at 200 ppm [4] | mortality at 200 ppm [5] | percent control (mortality or growth inhibition) at 200 ppm [6]

CCS(=O)(=O)c1cc2ccccc2nc1-c1nc2cc(C(F)(F)F)ncc2n1C [Compound A22, 3-ethylsulfonyl-2-[3-methyl-6-(trifluoromethyl)imidazo[4,5-c]pyridin-2-yl]quinolone]
≥ 80%: percent control (mortality or growth inhibition) at 200 ppm [1] | mortality at 24 ppm [8] | pest or weed control at 200 ppm [9] | mortality at 12 ppm [2] | mortality at 200 ppm [3] | percent control (mortality or growth inhibition) at 200 ppm [4] | mortality at 200 ppm [5] | percent control (mortality or growth inhibition) at 200 ppm [6] | percent control (mortality, anti-feedant effect or growth inhibition) at 12.5 ppm [10]

CCSc1cc2ccccc2cc1-c1nc2cc(C(F)(F)F)ncc2n1C [Compound A23, 2-(3-ethylsulfanyl-2-naphthyl)-3-methyl-6-(trifluoromethyl)imidazo[4,5-c]pyridine]
≥ 80%: percent effect (mortality or growth inhibition) at 200 ppm [1] | mortality at 12 ppm [2, 12] | percent effect (mortality or growth inhibition) at 200 ppm [4] | mortality at 200 ppm [5, 14] | percent effect (mortality or growth inhibition) at 200 ppm [6]

CCS(=O)(=O)c1cc2c(nc1-c1nc3cc(C(F)(F)F)ncc3n1C)nc(C(F)(F)F)n2C [Compound A33, 6-ethylsulfonyl-1-methyl-5-[3-methyl-6-(trifluoromethyl)imidazo[4,5-c]pyridin-2-yl]-2-(trifluoromethyl)imidazo[4,5-b]pyridine]
≥ 80%: mortality at 200 ppm [7] | percent effect (mortality or growth inhibition) at 200 ppm [1] | mortality at 24 ppm [8, 15] | mortality at 200 ppm [11] | mortality at 200 ppm [3, 13] | percent effect (mortality or growth inhibition) at 200 ppm [4] | mortality at 200 ppm [5, 14] | percent effect (mortality or growth inhibition) at 200 ppm [6]

CCS(=O)(=O)c1cc2nn(C)nc2cc1-c1nc2cc(C(F)(F)F)ncc2n1C [Compound A37, 5-ethylsulfonyl-2-methyl-6-[3-methyl-6-(trifluoromethyl)imidazo[4,5-c]pyridin-2-yl]benzotriazole]
≥ 80%: percent effect (mortality or growth inhibition) at 200 ppm [1] | mortality at 24 ppm [8, 15] | mortality at 200 ppm [11] | mortality at 200 ppm [3, 13] | percent effect (mortality or growth inhibition) at 200 ppm [4] | mortality at 200 ppm [5, 14] | percent effect (mortality or growth inhibition) at 200 ppm [6]

CCSc1cc2c(cc1-c1nc3cc(C(F)(F)F)ncc3n1C)nc(C(F)(F)F)n2C [Compound A39, 2-[6-ethylsulfanyl-1-methyl-2-(trifluoromethyl)benzimidazol-5-yl]-3-methyl-6-(trifluoromethyl)imidazo[4,5-c]pyridine]
≥ 80%: percent effect (mortality or growth inhibition) at 200 ppm [1] | pest or weed control at 200 ppm [9] | percent effect (mortality or growth inhibition) at 200 ppm [6]

CCS(=O)(=O)c1cc2cc(C(F)(F)C(F)(F)F)ccc2nc1-c1nc2cc(C(F)(F)F)ncc2n1C [Compound A52, 3-ethylsulfonyl-2-[3-methyl-6-(trifluoromethyl)imidazo[4,5-c]pyridin-2-yl]-6-(1,1,2,2,2-pentafluoroethyl)quinoline]
≥ 80%: percent effect (mortality or growth inhibition) at 200 ppm [1] | pest or weed control at 200 ppm [9] | mortality at 200 ppm [3, 13] | percent effect (mortality or growth inhibition) at 200 ppm [4] | percent effect (mortality or growth inhibition) at 200 ppm [6]

CCSc1cc2c(nc1-c1nc3cc(C(F)(F)F)ncc3n1C)CC(C)(C)O2 [Compound A58, 6-ethylsulfanyl-2,2-dimethyl-5-[3-methyl-6-(trifluoromethyl)imidazo[4,5-c]pyridin-2-yl]-3H-furo[3,2-b]pyridine]
≥ 80%: mortality at 200 ppm [7] | percent effect (mortality or growth inhibition) at 200 ppm [1] | mortality at 12 ppm [2, 12] | mortality at 200 ppm [3, 13] | percent effect (mortality or growth inhibition) at 200 ppm [4] | mortality at 200 ppm [5, 14] | percent effect (mortality or growth inhibition) at 200 ppm [6]
